Results on 25 compounds are retold here after the SangsterLogP compilation.

For orientation: logP means a log measure of how a compound divides between an organic and an aqueous phase. A lower logP goes with lower lipophilicity.

SMILES strings stand for the structures.

Take `C=C(C)C1(CC)C(=O)NC(=O)NC1=O`: the logP stood at 0.65.

Turning to `C=C(C)C1(CC(C)C)C(=O)NC(=O)NC1=O`, the logP came to 1.45.

`C/C=C(\CC)C1(C)C(=O)NC(=O)NC1=O` had a logP of 1.15.

In the case of `C=C(C)C1(CCCCC)C(=O)NC(=O)NC1=O`, the logP amounted to 2.15.

`CC/C=C(\C)C1(C(C)C)C(=O)NC(=O)NC1=O` displayed a logP of 1.95.

`CC=C(CCCC)C1(C)C(=O)NC(=O)NC1=O` yielded a logP of 2.15.

Compound `C=C(C)C1(CCCC)C(=O)NC(=O)NC1=O` gave a log partition coefficient (logP) of 1.65.

In the case of `C/C=C(\C)C1(CCC)C(=O)NC(=O)NC1=O`, the logP stood at 1.65.

`CC/C=C(/C)C1(CCC)C(=O)NC(=O)NC1=O` registered a log partition coefficient (logP) of 2.15.

`CC=C(C(C)C)C1(C)C(=O)NC(=O)NC1=O` displayed a logP of 1.45.

Compound `C/C=C(/C)C1(CC)C(=O)NC(=O)NC1=O` yielded a logP of 1.15.

As to `C=C(C)C1(C)C(=O)NC(=O)NC1=O`, the logP was 0.15.

Take `C/C=C(\C)C1(C)C(=O)NC(=O)NC1=O`: the log partition coefficient (logP) stood at 0.65.

In turn, `C/C=C(\CC)C1(CCC)C(=O)NC(=O)NC1=O` gave a logP of 2.15.

Consider `CC=C(CCC)C1(C)C(=O)NC(=O)NC1=O`, for which the logP worked out at 1.65.

For the compound `CC/C=C(\C)C1(CC)C(=O)NC(=O)NC1=O`, the logP turned out to be 1.65.

`C/C=C(\CC)C1(C(C)C)C(=O)NC(=O)NC1=O` registered a logP of 1.95.

`CC=C(CCCC)C1(CCC)C(=O)NC(=O)NC1=O`: the lipophilicity (logP) came to 2.65.

In the case of `C/C=C(\CC)C1(CC)C(=O)NC(=O)NC1=O`, the logP was determined as 1.65.

`C=C(C)C1(CCC(C)C)C(=O)NC(=O)NC1=O`: the logP came to 1.95.

As to `CC/C=C(\C)C1(C)C(=O)NC(=O)NC1=O`, the logP was determined as 1.15.

In turn, `C=C(C)C1(CCC)C(=O)NC(=O)NC1=O` came in with a log partition coefficient (logP) of 1.15.

Take `CCCC=C(CC)C1(CC)C(=O)NC(=O)NC1=O`: the lipophilicity (logP) was found to be 2.65.

On to `C=CCC1(/C(C)=C/C)C(=O)NC(=O)NC1=O`, for which the logP came to 2.15.

Turning to `CC=C(CCC)C1(CC)C(=O)NC(=O)NC1=O`, the lipophilicity (logP) was 2.15.
